This passage reports Activity and EC50 results from ChEMBL document CHEMBL5055673, “Direct evidence of edge-to-face CH/π interaction for PAR-1 thrombin receptor activation” (Bioorg Med Chem, 2021).

Numbered stars: 1 amine (or outer) side, 2 acyl side, 3 side chain; on linkers, the order of the positions; unused ones are H or OH. Square brackets hold non-standard residues; d marks the D form. Peptide text beside a SMILES is read from it. Phe(3,4,5-F3) = N[C@@H](Cc1cc(F)c(F)c(F)c1)C(=O)O; Phe(F5) = N[C@@H](Cc1c(F)c(F)c(F)c(F)c1F)C(=O)O; X1 = O=C([C@H](Cc1c(F)c(F)cc(F)c1F)N[*:1])[*:2]; X2 = O=C([C@H](Cc1c(F)cc(F)c(F)c1F)N[*:1])[*:2]; X3 = O=C([C@H](Cc1cc(F)c(F)c(F)c1F)N[*:1])[*:2]; Phe(3,5-F2) = N[C@@H](Cc1cc(F)cc(F)c1)C(=O)O; X4 = O=C([C@H](Cc1ccc(F)c(F)c1F)N[*:1])[*:2]; X5 = O=C([C@H](Cc1cc(F)c(F)cc1F)N[*:1])[*:2]; X7 = O=C([C@H](Cc1c(F)cc(F)cc1F)N[*:1])[*:2]; Phe(2,6-F2) = N[C@@H](Cc1c(F)cccc1F)C(=O)O; X6 = O=C([C@H](Cc1cc(F)ccc1F)N[*:1])[*:2]; Phe(4-F) = N[C@@H](Cc1ccc(F)cc1)C(=O)O; Cha = N[C@@H](CC1CCCCC1)C(=O)O

Assay [1] deals with T1, Proteinase-activated receptor 1 (Homo sapiens) (UniProt P25116).
T1 sequence (whole entry): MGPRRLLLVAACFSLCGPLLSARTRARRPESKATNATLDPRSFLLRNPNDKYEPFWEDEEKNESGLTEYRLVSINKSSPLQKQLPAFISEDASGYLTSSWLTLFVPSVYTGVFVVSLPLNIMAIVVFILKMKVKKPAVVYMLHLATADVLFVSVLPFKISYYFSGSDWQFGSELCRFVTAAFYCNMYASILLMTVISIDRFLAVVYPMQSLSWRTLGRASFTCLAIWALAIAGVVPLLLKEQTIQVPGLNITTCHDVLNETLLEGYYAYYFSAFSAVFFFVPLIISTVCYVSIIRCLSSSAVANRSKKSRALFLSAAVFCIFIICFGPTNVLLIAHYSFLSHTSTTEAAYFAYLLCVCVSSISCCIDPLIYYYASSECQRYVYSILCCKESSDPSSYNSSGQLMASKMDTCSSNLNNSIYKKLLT
Description: Activation of PAR-1 in human platelet-rich plasma assessed as induction of platelet aggregation by turbidimetric method relative to S/Phe/FLLRNP. The class given is cell-based.

In assay [2] the target is T2, Proteinase-activated receptor 1 (Homo sapiens, UniProt P25116).
T2 sequence (P25116 whole entry): T1 sequence (whole entry)
Description: Activation of PAR-1 in human platelet-rich plasma assessed as induction of platelet aggregation by turbidimetric method.

The species named for assay [3] is Homo sapiens. Description: Induction of platelet aggregation in human platelet-rich plasma assessed as decrease in turbidity by turbidimetric method. It counts as functional.
For assay [4], the species on record is Homo sapiens. Description: Induction of platelet aggregation in human platelet-rich plasma assessed as increase in transmissivity by turbidimetric method. The class given is functional.

As to `CC(C)C[C@H](NC(=O)[C@H](CC(C)C)NC(=O)[C@H](CC1CCCCC1)NC(=O)[C@@H](N)CO)C(=O)N[C@@H](CCCNC(=N)N)C(=O)N[C@@H](CC(N)=O)C(=O)N1CCC[C@H]1C(N)=O` (H-S[Cha]LLRNP-NH2), the Activity in assay [1] worked out at 3%. On the same count and under the same terms, under `CC(C)C[C@H](NC(=O)[C@H](Cc1c(F)cccc1F)NC(=O)[C@@H](N)CO)C(=O)N[C@@H](CC(C)C)C(=O)N[C@@H](CC(N)=O)C(=O)N1CCC[C@H]1C(N)=O` (H-S[Phe(2,6-F2)]LLNP-NH2) stands 11%. The same measure, in the same setting: the figure for `CC(C)C[C@H](NC(=O)[C@H](Cc1cc(F)c(F)c(F)c1)NC(=O)[C@@H](N)CO)C(=O)N[C@@H](CC(C)C)C(=O)N[C@@H](CC(N)=O)C(=O)N1CCC[C@H]1C(N)=O` (H-S[Phe(3,4,5-F3)]LLNP-NH2) is 16%. Same read-out and setting: under `CC(C)C[C@H](NC(=O)[C@H](Cc1cc(F)cc(F)c1)NC(=O)[C@@H](N)CO)C(=O)N[C@@H](CC(C)C)C(=O)N[C@@H](CC(N)=O)C(=O)N1CCC[C@H]1C(N)=O` (H-S[Phe(3,5-F2)]LLNP-NH2) stands 11%. For the compound `CC(C)C[C@H](NC(=O)[C@H](Cc1ccc(F)cc1)NC(=O)[C@@H](N)CO)C(=O)N[C@@H](CC(C)C)C(=O)N[C@@H](CC(N)=O)C(=O)N1CCC[C@H]1C(N)=O` (H-S[Phe(4-F)]LLNP-NH2), in assay [1] (filed as activator), the Activity was 250%. With `CC(C)C[C@H](NC(=O)[C@H](Cc1c(F)c(F)c(F)c(F)c1F)NC(=O)[C@@H](N)CO)C(=O)N[C@@H](CC(C)C)C(=O)N[C@@H](CC(N)=O)C(=O)N1CCC[C@H]1C(N)=O` (H-S[Phe(F5)]LLNP-NH2), the Activity in assay [1] stood at 0%. For the compound `CC(C)C[C@H](NC(=O)[C@H](CC(C)C)NC(=O)[C@H](Cc1c(F)c(F)c(F)c(F)c1F)NC(=O)[C@@H](N)CO)C(=O)N[C@@H](CCCNC(=N)N)C(=O)N[C@@H](CC(N)=O)C(=O)N1CCC[C@H]1C(N)=O` (H-S[Phe(F5)]LLRNP-NH2), the Activity in assay [1] is 0%. Also, the EC50 result in assay [2] is reported as “Not Active”. Taken in the same sequence, the figures for `CC(C)C[C@H](NC(=O)[C@H](CC(C)C)NC(=O)[C@H](Cc1c(F)c(F)cc(F)c1F)NC(=O)[C@@H](N)CO)C(=O)N[C@@H](CCCNC(=N)N)C(=O)N[C@@H](CC(N)=O)C(=O)N1CCC[C@H]1C(N)=O` (H-S[X1]LLRNP-NH2) were 0% and “Not Active”. Consider `CC(C)C[C@H](NC(=O)[C@H](Cc1c(F)cc(F)c(F)c1F)NC(=O)[C@@H](N)CO)C(=O)N[C@@H](CC(C)C)C(=O)N[C@@H](CC(N)=O)C(=O)N1CCC[C@H]1C(N)=O` (H-S[X2]LLNP-NH2), for which the Activity in assay [1] amounted to 34%. Still for that read-out and setting: the figure for `CC(C)C[C@H](NC(=O)[C@H](CC(C)C)NC(=O)[C@H](Cc1c(F)cc(F)c(F)c1F)NC(=O)[C@@H](N)CO)C(=O)N[C@@H](CCCNC(=N)N)C(=O)N[C@@H](CC(N)=O)C(=O)N1CCC[C@H]1C(N)=O` (H-S[X2]LLRNP-NH2) is 34%. On the same count and under the same terms, the figure for `CC(C)C[C@H](NC(=O)[C@H](Cc1cc(F)c(F)c(F)c1F)NC(=O)[C@@H](N)CO)C(=O)N[C@@H](CC(C)C)C(=O)N[C@@H](CC(N)=O)C(=O)N1CCC[C@H]1C(N)=O` (H-S[X3]LLNP-NH2) is 6%. On the same count and under the same terms, the figure for `CC(C)C[C@H](NC(=O)[C@H](CC(C)C)NC(=O)[C@H](Cc1cc(F)c(F)c(F)c1F)NC(=O)[C@@H](N)CO)C(=O)N[C@@H](CCCNC(=N)N)C(=O)N[C@@H](CC(N)=O)C(=O)N1CCC[C@H]1C(N)=O` (H-S[X3]LLRNP-NH2) is 6%. In the case of `CC(C)C[C@H](NC(=O)[C@H](Cc1ccc(F)c(F)c1F)NC(=O)[C@@H](N)CO)C(=O)N[C@@H](CC(C)C)C(=O)N[C@@H](CC(N)=O)C(=O)N1CCC[C@H]1C(N)=O` (H-S[X4]LLNP-NH2), the Activity in assay [1] (filed as activator) was 98%.

Take `CC(C)C[C@H](NC(=O)[C@H](Cc1cc(F)c(F)cc1F)NC(=O)[C@@H](N)CO)C(=O)N[C@@H](CC(C)C)C(=O)N[C@@H](CC(N)=O)C(=O)N1CCC[C@H]1C(N)=O` (H-S[X5]LLNP-NH2): the Activity in assay [1] (filed as activator) came out at 180%.

Regarding `CC(C)C[C@H](NC(=O)[C@H](Cc1cc(F)ccc1F)NC(=O)[C@@H](N)CO)C(=O)N[C@@H](CC(C)C)C(=O)N[C@@H](CC(N)=O)C(=O)N1CCC[C@H]1C(N)=O` (H-S[X6]LLNP-NH2), in assay [1], the Activity is 35%.

In the case of `CC(C)C[C@H](NC(=O)[C@H](Cc1c(F)cc(F)cc1F)NC(=O)[C@@H](N)CO)C(=O)N[C@@H](CC(C)C)C(=O)N[C@@H](CC(N)=O)C(=O)N1CCC[C@H]1C(N)=O` (H-S[X7]LLNP-NH2), the Activity in assay [1] (filed as activator) was 49%.

Regarding H-SALLRNP-NH2, in assay [1], the Activity came out at 0%. In addition, the EC50 result in assay [2] was “Not Active”. As to H-SFLLNP-NH2, the Activity in assay [1] (filed as activator) was found to be 100%. For H-SFLLRNP-NH2, the Activity result in assay [3] was “Dose-dependent effect”; in assay [1] (filed as activator) it was 100%; in assay [4], “Dose-dependent effect”.
